Data reported in patent publication US20220348595A1, “COMPOUNDS AND METHODS FOR THE TARGETED DEGRADATION OF ESTROGEN RECEPTORS” (Endotarget Inc., priority 2021, published 2022).

How the values were obtained:
Format in all cases: cell-based
ER = target: T1, ER (Homo sapiens, UniProt P03372); assay: ER antagonism (T47D ERE luciferase), T47d-kb-Luc cells; conditions: read-out: IC50 (ER antagonistm)
T1 construct: endogenous in cells; host or cells: T47d-kb-Luc (T47D stably transfected with a luciferase reporter gene only)
T1 sequence (P03372 1-595): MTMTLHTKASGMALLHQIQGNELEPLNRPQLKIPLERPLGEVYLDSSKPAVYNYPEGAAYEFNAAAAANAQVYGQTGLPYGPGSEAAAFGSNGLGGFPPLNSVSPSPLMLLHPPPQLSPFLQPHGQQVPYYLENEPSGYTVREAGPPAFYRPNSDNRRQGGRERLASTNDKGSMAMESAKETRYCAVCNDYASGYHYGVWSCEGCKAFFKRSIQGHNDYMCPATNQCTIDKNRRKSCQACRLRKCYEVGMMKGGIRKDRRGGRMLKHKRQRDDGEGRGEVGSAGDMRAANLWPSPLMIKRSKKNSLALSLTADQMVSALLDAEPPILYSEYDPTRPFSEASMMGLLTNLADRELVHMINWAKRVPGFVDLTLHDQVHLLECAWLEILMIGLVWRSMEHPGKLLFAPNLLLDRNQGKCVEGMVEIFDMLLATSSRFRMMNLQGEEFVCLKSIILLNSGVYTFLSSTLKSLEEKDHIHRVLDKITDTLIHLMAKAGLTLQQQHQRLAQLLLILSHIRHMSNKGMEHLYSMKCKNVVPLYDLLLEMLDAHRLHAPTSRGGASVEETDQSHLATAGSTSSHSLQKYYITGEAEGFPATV
Outline: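 Five sample concentrations, each in quadruplicate and repeated in at least three experiments, were tested for blocking of estradiol activity. Values were expressed relative to the estradiol control. The cell system was the T47d-kb-Luc stable breast cancer line.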

[1] = test system: MCF-7 breast cancer cells; assay: MCF-7 proliferation / cell viability assay; conditions: Homo sapiens, MCF7; MCF-7 proliferation with 0.1 nM 17-beta estradiol; read-out: IC50 (anti-proliferation)
Outline: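 Survival ratio, with vehicle (DMSO) as 100%, was derived from Coulter-counted viable cell numbers. Cells were grown in 5% FBS DMEM and dosed for 5 days across six concentrations between 10^−10 M and 10^−5 M.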

ERα = target: T2, ERα (Homo sapiens, UniProt P03372); assay: ER degradation in MCF-7 cells (Western blot); conditions: for DC50: ER degradation, 24 hours; for Dmax: MCF7, Maximal ER degradation, read-out: Dmax
T2 construct: endogenous in cells; host or cells: MCF-7
T2 sequence (P03372 1-595): T1 sequence (P03372 1-595)
Outline: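 ERα levels assessed by Western blot (50 μg lysate protein, infrared scanner) after 24-hour exposure of MCF-7 cells to varied compound concentrations. Values reported as DC50, the concentration halving ER expression, and Dmax, the maximal ER reduction achieved across tested concentrations.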

SMILES	IC50 (ER)	IC50 [1]	DC50 (ERα)	Dmax (ERα)
CC/C(=C(\c1ccc(O)cc1)c1ccc(OCCN2CCN(C(=O)N3CCN(c4ccc5c(c4)CN([C@H]4CCC(=O)NC4=O)C5=O)CC3)CC2)cc1)c1ccccc1 [Compound 78, (S,Z)-3-(5-(4-(4-(2-(4-(1-(4-hydroxyphenyl)-2-phenylbut-1-en-1-yl)phenoxy)ethyl)piperazine-1-carbonyl)piperazin-1-yl)-1-oxoisoindolin-2-yl)piperidine-2,6-dione]	< 10 nM	< 10 nM	< 10 nM	> 90%
CC/C(=C(\c1ccc(O)cc1)c1ccc(OCCN2CCN(C(=O)N3CCN(c4ccc5c(c4)CN([C@@H]4CCC(=O)NC4=O)C5=O)CC3)CC2)cc1)c1ccccc1 [Compound 79, (R,Z)-3-(5-(4-(4-(2-(4-(1-(4-hydroxyphenyl)-2-phenylbut-1-en-1-yl)phenoxy)ethyl)piperazine-1-carbonyl)piperazin-1-yl)-1-oxoisoindolin-2-yl)piperidine-2,6-dione]	< 10 nM	< 10 nM	< 10 nM	> 90%
CC/C(=C(/c1ccc(O)cc1)c1ccc(OCCN2CCN(C(=O)N3CCN(c4ccc5c(c4)CN(C4CCC(=O)NC4=O)C5=O)CC3)CC2)cc1)c1ccccc1 (centres unmarked) [Compound 80, (E)-3-(5-(4-(4-(2-(4-(1-(4-hydroxyphenyl)-2-phenylbut-1-en-1-yl)phenoxy)ethyl)piperazine-1-carbonyl)piperazin-1-yl)-1-oxoisoindolin-2-yl)piperidine-2,6-dione]	< 10 nM	< 10 nM	< 10 nM	> 90%
CC/C(=C(/c1ccc(O)cc1)c1ccc(OCCN2CCN(C(=O)N3CCN(c4ccc5c(c4)CN([C@H]4CCC(=O)NC4=O)C5=O)CC3)CC2)cc1)c1ccccc1 [Compound 81, (S,E)-3-(5-(4-(4-(2-(4-(1-(4-hydroxyphenyl)-2-phenylbut-1-en-1-yl)phenoxy)ethyl)piperazine-1-carbonyl)piperazin-1-yl)-1-oxoisoindolin-2-yl)piperidine-2,6-dione]	< 10 nM	< 10 nM	< 10 nM	> 90%
CC/C(=C(/c1ccc(O)cc1)c1ccc(OCCN2CCN(C(=O)N3CCN(c4ccc5c(c4)CN([C@@H]4CCC(=O)NC4=O)C5=O)CC3)CC2)cc1)c1ccccc1 [Compound 82]	< 10 nM	< 10 nM	< 10 nM	> 90%

Second part, the molecule after the results:

IC50 (ER)	IC50 [1]	DC50 (ERα)	Dmax (ERα)	SMILES
< 10 nM	< 10 nM	< 10 nM	> 90%	CC/C(=C(/c1ccc(OCCN2CCN(C(=O)N3CCN(c4ccc5c(c4)CN(C4CCC(=O)NC4=O)C5=O)CC3)CC2)cc1)c1ccc(B(O)O)cc1)c1ccccc1 (centres unmarked) [Compound 83, (Z)-(4-(1-(4-(2-(4-(4-(2-(2,6-dioxopiperidin-3-yl)-1-oxoisoindolin-5-yl)piperazine-1-carbonyl)piperazin-1-yl)ethoxy)phenyl)-2-phenylbut-1-en-1-yl)phenyl)boronic acid]
< 10 nM	< 10 nM	< 10 nM	> 90%	CC/C(=C(/c1ccc(OCCN2CCN(C(=O)N3CCN(c4ccc5c(c4)CN([C@H]4CCC(=O)NC4=O)C5=O)CC3)CC2)cc1)c1ccc(B(O)O)cc1)c1ccccc1 [Compound 84]
< 10 nM	< 10 nM	< 10 nM	> 90%	CC/C(=C(/c1ccc(OCCN2CCN(C(=O)N3CCN(c4ccc5c(c4)CN([C@@H]4CCC(=O)NC4=O)C5=O)CC3)CC2)cc1)c1ccc(B(O)O)cc1)c1ccccc1 [Compound 85, (R,Z)-(4-(1-(4-(2-(4-(4-(2-(2,6-dioxopiperidin-3-yl)-1-oxoisoindolin-5-yl)piperazine-1-carbonyl)piperazin-1-yl)ethoxy)phenyl)-2-phenylbut-1-en-1-yl)phenyl)boronic acid]
